Experimental data published in US20030158118A1, “Combination of cimetidine and cysteine derivatives for treating cancer” (priority 2001, published 2003).

System: CT26 colorectal cancer cells
Assay: Tumor growth in BALB/c mice grafted with syngenic CT26 colorectal cancer cells
Assay type: in vivo
Details: day 33; drinking water: compound 20 1.5 mg/ml (150 mg/kg daily), cimetidine or N-acetyl cysteine 0.75 mg/ml (75 mg/kg daily); vs vehicle
Description: The effect of a complex of the invention and the effect of the components of the complex is tested on tumor growth in BALB/c mice grafted with syngenic CT26 colorectal cancer cells. The aim of the study is to compare the effect on tumor growth of the complex of the invention versus the effect of the two components of the complex individually. […] Compound 20, cimetidine and […] dissolved in drinking water. […] The solutions are available ad libitum in the entire study period. […] The doses of cimetidine and N-acetylcysteine are selected to correspond to the doses of each individual compound obtained by administration of […] of compound 20. In these studies, female BALB/c mice with an age of 6 weeks are used. Ten mice are included per group. The mice are caged in standard cages at a temperature of 21° C.-23° C. controlled via the ambient ventilation system in the laboratory. Light cycle is 12-hour dark and 12-hour light (lights on 06.00). Diet is Altromin 1314 special formulation, Produced by Altromin Denmark, Chr. Pedersen A/S, 4100 Ringsted, Denmark. Water is acidified with citric acid. Diet and water is administered ad libitum. The mice are randomised to test groups of ten mice. After one week of acclimatisation each mouse is injected subcutaneously with appr. […] Tumor diameters are measured in two dimensions using a digital slide gauge.

For `CC(=O)N[C@@H](CS)C(=O)O` [N-acetyl cysteine], the tumor growth inhibited was 19%.
`CN/C(=N/CCSCc1nc[nH]c1C)NC#N` [cimetidine] gave a tumor growth inhibited of 8%.
